# Data from US7291347B2, “Succinate salt of O-desmethyl-venlafaxine” (Wyeth, priority 2001, dated 2007).
# Read-outs that look alike come from different tables or passages of the source.
# Legend:
# [1] = Stability in perfusion buffer and jejunal fluids; assay type: in vitro ADME, rat; conditions: for stability in blank perfusion buffer and jejunal fluids: pH 6.8, 37° C., up to 6 hours; for relative percentage remaining of HPLC peak area: 37° C.
# Experimental: The stability of ODV succinate or fumarate in the solutions of blank perfusion buffer (Pβ), and jejunal fluids (perfusion buffer collected by washing the isolated jejunal segment, pH=6.8) was determined at 37° C. for up to 6 hours.
# [2] = In situ rat intestinal perfusion (site-specific absorption); assay type: in vivo; conditions: for Peff Meloprolol: 20 μg/mL
# Source text: The rat intestine perfusion technique is a direct way to measure the regional absorption properties of a test compound in the gastrointestinal tract. Rat intestinal permeability coefficient (Peff) can be used to predict human in vivo oral absorption of passively absorbed compounds. Fagerholm, M. Johansson, and […], “Comparison between permeability coefficients in rat and human jejunum”, Pharm. […] Meanwhile, some other characteristics such as formulable Maximum Absorbable Dose (MAD), FDA Biopharmaceutical Classification, etc. can also be estimated. […] Rats used in this study were Charles River CD males, ranging in weight from approximately 300-350 grams. Metoprolol (a well-absorbed and passively transported compound) was used as a standard and tested simultaneously along with the ODV compounds. […] All chemicals were of analytical grade. After each experiment, all the analytic assays were performed promptly. For isotope determinations, 0.5 mL of perfusate sample containing ^14C PEG-4000 and ^3H-mannitol was mixed with 5 mL of scintillation cocktail. Radioactivity was counted in a liquid scintillation counter (Wallac 1409). Glucose concentration was determined by the glucose oxidase method (Biochemistry Analyzer). Metoprolol and the ODV compounds were analyzed by HPLC-UV/Vis (HP-1100 with a diode-array detector), using a YMC AQ 120 μ, 5 μ, 150×4.6 mm column and step gradient mobile phase containing water/0.1% TFA and acetonitrile. The ODV compounds and metoroplol were detected at 226 and 272 nm UV wavelength, respectively. Blank perfusate was assayed to evaluate the interference at these chromatographic conditions. The perfusions were performed in three intestinal sections of anesthetized rats: duodenum-jejunum, ileum, and colon. The lengths of the segments were approximately 10-12 cm for small intestine segments and 5-6 cm for colon segments. An inflow cannula was inserted at the proximal end and an outflow cannula was inserted at the distal end. Perfusate was pumped through the segment at 0.19 mL/min, and collected at 20, 40, 55, 70, 85 and 100 minutes. […] The disappearance rates of ODV compound, metoprolol, and glucose were determined from each collection interval by comparing to the initial compound solution remaining in the syringe at the end of the 100 minutes. This is to correct for any losses due to binding to the syringe or tubing. Meanwhile, drug concentration in perfusate samples were corrected for water influx/efflux, which was computed, based on ^14C-PEG-4000 concentration changes. […] Values below this range would indicate tissue damage that allows passage of PEG-4000 outside of the perfused segment, while values above this range would indicate significant water movement out of the segment. Water movement across the gut wall was determined by calculation of net water fluid: Net Water Flux (NWF)=[(1-[…] where PEGout and PEGin are the amount of radioactivity (dpm) of ^14C-PEG-4000 in inlet and outlet sides of the perfused intestinal segment, respectively; Q is the flow rate of perfusate; and L is the length of perfused segment (cm). The presence of the ODV compound in the perfusate was determined by HPLC. The amount of drug present at each time point was corrected for water movement across the wall of the intestine: Cout,[…]) where Cout is the concentration of drug in outlet perfusate; Cout,corr is the concentration of drug in outlet perfusate corrected for water moving in or out of the segment, as determined by the recovery of ^14C-PEG-4000. Effective intestinal permcability, Peff (cm/sec), was determined by the following equation: […] Cin is the concentration of drug in inlet perfusate; 2 μrL is the inner surface area of the perfused segment, with r assumed to be 0.18 cm in the rat (see G. Amidon, […]. Crison. “A theoretical basis for a biopharmaceutic drug classification: The correlation of in vitro drug product dissolution and in vivo bioavailability.” Pharm. Res. 12, 1995, 413-420) and L the length of the perfused segment (cm). […]
# [3] = Aqueous solubility (UV spectrophotometry); assay type: physicochemical; conditions: water, thermodynamic from solid
# Experimental: The aqueous solubility (reported above) of Form I of ODV succinate was determined according to the following procedure. Materials • Spectrophotometer—Capable of isolating a bandwidth of 2 nm or less at the wavelength of maximum absorbance, and of measuring absorbances in the 0.0 to 1.0 range with a precision of 0.01. A Cary Model 219 spectrophotometer or equivalent is suitable. • Cells—Silica, 1 cm. • Filters—0.45 micron Nylon filters which are chemical resistant or equivalent • Bottles—Glass screw top bottles having a 15 mL or greater capacity. • Shaker—A lateral shaker, wrist shaker, or a vibrator which will not generate heat is suitable. A. For Non UV Absorbing Solvents • 1. To a bottle weigh an amount of sample equivalent to approximately 1½ times the solubility. • 2. […] Agitate the bottles at ambient room temperature for at least 16 hours. • 4. Obtain a clear filtrate layer by either centrifugation of filtration being careful to avoid evaporation. • 5. Quantitatively transfer the solution to a volumetric flask and dilute to volume with water. • 6. Blank the instrument for water. • 7. Make quantitative dilutions to arrive at a suitable concentration for measurement. […] Quantitatively transfer to a volumetric flask with the same solvent used in preparing the standard solution. • 6. Make dilutions as necessary to obtain a concentration suitable for quantitative measurement. […]
# [4] = Bioavailability of O-desmethyl-venlafaxine in beagle dogs; assay type: in vivo; conditions: male, dog, plasma, free ODV levels, mean (% CV); for bioavailability: read-out: Absolute Bioavailability (%)
# Experimental: Prior to administration, the oral solution (25 mg/mL) was diluted to a concentration of 7.5 mg/mL with water. […] Six male beagle dogs with body weights ranging between 10.2 and 16.0 kg were used in this study. The dogs were housed and given free access to water and food. The six dogs were dosed in a 4 period study. In Period 1, the dogs received 1 mL of the intravenous solution. In Period 2, the dogs received 10 mL of the oral solution. In Period 3, the dogs received the tablet. In Period 4, the dogs received the capsule. There was a one week wash out period between the first two treatment periods and a one month wash out period between treatment periods 2 and 3. Between periods 3 and 4, there was a one week wash out period. For periods 1 and 2, all dogs were fasted overnight with free access to water and fed after the four-hour bleeding. […] Plasma was separated in a refrigerated centrifuge and stored at -70° C. Plasma samples were then assayed. Plasma O-desmethyl-venlafaxine concentrations were determined by the HPLC method using mass spectrometric detection described in Hicks, […]., Russel, […] high-performance liquid chromatographic method for the simultaneous determination of venlafaxine and O-desmethylvenlafaxine in biological fluids”, Ther. Drug Monit. 16:100-107 (1994), which is hereby incorporated by reference. […] O-desmethyl-venlafaxine-glucuronide levels were determined by subtracting the O-desmethyl-venlafaxine (separate extraction procedure without the use of β-glucuronidase and analyzed by HPLC-MS) concentrations from the total O-desmethyl-venlafaxine concentrations. Noncompartmental pharmacokinetic parameters were calculated from the individual dog plasma O-desmethyl-venlafaxine and O-desmethyl-venlafaxine-glucuronide concentration-time profiles. Area under the plasma concentration-time curves (AUC0-μ) values were calculated by the addition of AUCLast (AUCLast=the linear trapezoid rule from time zero to the last measurable plasma concentration, […]) and […]/lambda. The values for lambda were determined from the long-linear portion of the terminal slope of the plasma O-desmethyl-venlafaxine and O-desmethyl-venlafaxine-glucuronide concentration-time profile after the intravenous dose. […] The peak plasma concentration (Cmax) and the time to reach Cmax (tmax) were noted directly from the plasma concentration-time profiles. Absolute bioavailability was determined by comparing the dose normalized AUC0-μvalues following the intravenous administration. All levels reported as below limit of quantitation (BLQ) were assigned a value of zero for calculation purposes.
# [5] = Physical stability of the crystalline form; assay type: physicochemical
# [6] = system: Reserpine-Induce Hypothermia; conditions: i.p.; cited from earlier work
# Norepinephrine reuptake = conditions: in vitro; read-out: Inhibition of amine reuptake (IC50), Norepinephrine; cited from earlier work
# Serotonin reuptake = conditions: in vitro; read-out: Inhibition of amine reuptake (IC50), Serotonin; cited from earlier work
# Dopamine reuptake = conditions: in vitro; read-out: Inhibition of amine reuptake (IC50), Dopamine; cited from earlier work
# Cholinergic = conditions: at 1 uM; cited from earlier work
# Adrenergic α = conditions: at 1 uM; cited from earlier work
# Opiate = conditions: at 1 uM; cited from earlier work
# [7] = male, Charles River CD, rat, in vivo, 50 μg/mL, pH 6.8
# [8] = po, 75 mg, Oral Solution (75 mg)
smiles,measurement,setting,value
"CN(C)CC(c1ccc(O)cc1)C1(O)CCCCC1.O=C(O)/C=C/C(=O)O (centres unmarked) [ODV fumarate, reference compound]",stability in blank perfusion buffer and jejunal fluids,[1],no apparent degradation/metabolism
same,MAD predicted,"[2]; rat, in vivo",about 440 mg
same,Peff as percentage of the succinate's Peff values,"[2]; rat, in vivo",27μ40
same,Peff values,"[2]; rat, in vivo",0.24-0.68 ×10^−5 cm/sec
same,in vivo Fa estimated,"[2]; rat, in vivo",33-45%
"CN(C)CC(c1ccc(O)cc1)C1(O)CCCCC1.O=C(O)CCC(=O)O (centres unmarked) [ODV succinate, O-desmethyl-venlafaxine succinate]",solubility,[3]; general statement,> 30 mg/mL
same,relative percentage remaining of HPLC peak area,"[1]; Blank Perfusion Buffer, 0 hours",100.0%
same,relative percentage remaining of HPLC peak area,"[1]; Blank Perfusion Buffer, 2 hours",99.9%
same,relative percentage remaining of HPLC peak area,"[1]; Blank Perfusion Buffer, 3 hours",100.3%
same,relative percentage remaining of HPLC peak area,"[1]; Blank Perfusion Buffer, 6 hours",99.9%
same,relative percentage remaining of HPLC peak area,"[1]; Intestinal fluid (pH 6.8, total protein approx. 0.2 mg/ml), 0 hours",100.0%
same,relative percentage remaining of HPLC peak area,"[1]; Intestinal fluid (pH 6.8, total protein approx. 0.2 mg/ml), 2 hours",99.6%
same,relative percentage remaining of HPLC peak area,"[1]; Intestinal fluid (pH 6.8, total protein approx. 0.2 mg/ml), 3 hours",99.8%
same,relative percentage remaining of HPLC peak area,"[1]; Intestinal fluid (pH 6.8, total protein approx. 0.2 mg/ml), 6 hours",100.1%
same,stability in blank perfusion buffer and jejunal fluids,[1],no apparent degradation/metabolism
same,Peff as percentage of metoprolol's Peff value,[2]; [7],about 10%
same,Peff's ratio of duodenum-jejunum vs. ileum vs. colon,[2]; [7],1.00:1.90:0.07
same,human in vivo Fa predicted,"[2]; rat, in vivo, 50 μg/mL, pH 6.8",60-77%
same,AUC,"[4]; iv, 25 mg, Intravenous Solution (25 mg)",746 ng·h/mL
same,AUC,"[4]; po, 75 mg, Capsule (75 mg)",904 ng·h/mL
same,Cmax,"[4]; po, 75 mg, Capsule (75 mg)",465 ng/mL
same,Tmax,"[4]; po, 75 mg, Capsule (75 mg)",33 min
same,bioavailability,"[4]; po, 75 mg, Capsule (75 mg)",40%
same,AUC,[4]; [8],835 ng·h/mL
same,Cmax,[4]; [8],450 ng/mL
same,Tmax,[4]; [8],30 min
same,bioavailability,[4]; [8],37%
same,AUC,"[4]; po, 75 mg, Tablet (75 mg)",677 ng·h/mL
same,Cmax,"[4]; po, 75 mg, Tablet (75 mg)",115 ng/mL
same,Tmax,"[4]; po, 75 mg, Tablet (75 mg)",175 min
same,bioavailability,"[4]; po, 75 mg, Tablet (75 mg)",31%
"CN(C)CC(c1ccc(O)cc1)C1(O)CCCCC1.O=C(O)CCC(=O)O (centres unmarked) [Form I, O-des-methyl-Venlafaxine succinate monohydrate]",solubility,[3]; at 25° C.,32.2 mg/mL
same,physically stable at relative humidity,[5],5-95%
same,physically stable up to (temperature),[5],at least 105 °C
"COCCc1ccc(OCC(O)CNC(C)C)cc1 (centres unmarked) [Meloprolol, Metoprolol, reference compound]",Peff Meloprolol,"[2]; Colon, perfused together with ODV fumarate",11 10^−5 cm/sec
same,Peff Meloprolol,"[2]; Colon, perfused together with ODV succinate",0.583 ± 0.087 10^−5 cm/sec
same,Peff Meloprolol,"[2]; Ileum, perfused together with ODV fumarate",53 10^−5 cm/sec
same,Peff Meloprolol,"[2]; Ileum, perfused together with ODV succinate",3.22 ± 0.07 10^−5 cm/sec
same,Peff Meloprolol,"[2]; Jejunum, perfused together with ODV fumarate",1.78 ± 0.93 10^−5 cm/sec
same,Peff Meloprolol,"[2]; Jejunum, perfused together with ODV succinate",2.50 ± 0.11 10^−5 cm/sec
"CN(C)CC(c1ccc(O)cc1)C1(O)CCCCC1 (centres unmarked) [O-desmethylvenlafaxine, 1-[2-(dimethylamino)-1-(4-phenol)ethyl]-cyclohexanol]",Reversal of Reserpine-Induce Hypothermia (minimum effect),[6],3 mg/kg
same,IC50,Norepinephrine reuptake,1160 nM
same,IC50,Serotonin reuptake,180 nM
same,IC50,Dopamine reuptake,13400 nM
same,"Affinity for Various Neuroreceptors (% inhibition), Cholinergic",Cholinergic,7%
same,"Affinity for Various Neuroreceptors (% inhibition), Adrenergic α",Adrenergic α,0%
same,"Affinity for Various Neuroreceptors (% inhibition), Opiate",Opiate,7%
